Experimental data reported in patent US4051244A, “2,4-Diamino 5-bromo 6-chloro pyrimidines, process for their preparation and use as pharmaceuticals” (Mar-Pha Societe d'Etudes et d'Exploitation de Marques, priority 1975, dated 1977).

Key:
[1] = LD 50 in the mouse, oral (cumulative method of Reed and Muench); details: in vivo
Procedure: (§1) The toxicities of the products according to the invention have been determined on the mouse CD 1 (Charles River) by intravenous and oral methods. The lethal doses 50% (LD 50) are calculated by the cumulative method of Reed J. J. and Muench, H. (Am. J. Hyg. 27, 493, 1938).

[2] = system: vomitings induced by apomorphine; experiment: Anti-emetic test: vomitings induced by apomorphine in the dog, oral; assay type: in vivo; details: mongrel dog; for ED50: Canis lupus familiaris, read-out: DE 50, dose diminishing by 50% the number of vomitings induced by apomorphine
From the text: The anti-emetic properties of the compounds according to the invention are shown by oral way in the mongrel dog in tests in which vomitings are induced by apomorphine according to Chen, G. and Ensor, C. (J. Pharmacol exp. Ther. 98, 24, 1950).
The results are expressed by a DE 50 which represents the dose of product capable of diminishing by 50% the number of vomitings induced by the agent.

[3] = system: bronchospasms induced by serotonine; experiment: Bronchospasms using serotonine in guinea pigs, intravenous; assay type: in vivo, Albinos Hartley guinea-pigs; details: Cavia porcellus, i.v., anesthesized guinea-pigs, read-out: DE 50, dose reducing by 50% the amplitude of bronchospasms using serotonine in guinea pigs
From the text: (§2) The anti-serotonine properties of the compounds according to the invention are shown in vitro and in vivo.
In vivo, the products are applied by intra-venous way to anesthesized Albinos Hartley guinea-pigs. A method originated from Konzett, H. and Rossler, R. is employed (Naunyn. Schmiedeberg's Arch. exp. Path. Pharmakol, 195, 71, 1940). The results, shown in the table hereunder, are expressed by a DE 50 which represents the dose capable of reducing by 50% the amplitude of bronchospasms induced by the administration of serotonine.

[4] = LD 50 in the mouse, intravenous (cumulative method of Reed and Muench); details: in vivo
Procedure: as §1

[5] = system: ulcer induced by reserpine; experiment: Protection against the ulcer induced by reserpine in a rat, acute oral; assay type: in vivo, rat CD (Charles River); details: for antiulcer properties (in words): p.o., reserpine and constraint ulcer; for ED50: po, read-out: DA 50, dose protecting 50% of the animals against the ulcer induced by reserpine in a rat
From the text: (§3) The anti-ulcer properties of the products according to the invention are shown in the rat CD (Charles River) by acute oral administration using two techniques.
The first technique studies the activity of the product in connection with the experimental ulcer induced by […] according to Brodie, D. A. (Gastroenterology, 43, 675, 1962). The result is expressed by a DA 50 which represents the dose in mg/kg capable of protecting 50% of the animals against the least trace of ulceration of the mucous gastric system.

[6] = system: isolated uterus, spasms induced by serotonine; experiment: Spasms of isolated uterus of rat induced by serotonine; design: species or system rat CD (Charles River); details: for CE 50, spasms of isolated uterus of rat induced by serotonine: in vitro
From the text: as §2
In vitro, the action of the products on the spasms induced by the serotonine in the isolated uterus of a rat (rat CD Charles River) is shown, according to the technique of Fanchamps, A., Doepfner, W., Weidman, H. and Cerletti, (A. Schw. Med. Worsch. 90, 1040, 1960). The results, shown in the table hereunder, are expressed by a CE 50 which represents the concentration in mg/1 of the product capable of decreasing by 50% the amplitude of spasms induced by the serotonine.

[7] = system: cerebral phosphodiesterases; experiment: Inhibition of the phosphodiesterases of the brain; assay type: biochemical, rat CD (Charles River)
From the text: The phosphodiesterasic activity is shown by the method of Kukovetz E. R. and Poech, G. (Arch. Pharmakol. 1970, 267, 189) by utilizing the supernatant part obtained after centrifugation at 10,000 G of the brain of male rats CD (Charles River).
The inhibiting action of the compounds according to the invention on the cerebral phosphodiesterases has been tested and expressed by an inhibiting concentration 50% (CI 50) in micromoles.

[8] = system: isolated duodenum, spasms induced by acetylcholine; experiment: Spasms of the isolated duodenum of a rat induced by acetylcholine (neurotropic); details: for spasmolytic effects, both musculotropic and neurotropic (in words): acetylcholine and barium chloride
From the text: (§4) The anti-spasmodic properties of the compounds according to the invention are shown by use of the technique of Magnus, R. (Ges. Physiol. 102, 123, 1904) in connection with the spasms of the isolated duodenum of a rat caused by either acetylcholine to research an effect of neurotropic type or by barium chloride to research an effect of musculotropic type.
(§5) The results, shown hereunder, are expressed by a CE 50 which represents the concentration of product in mg/1 capable of decreasing by 50% the amplitude of spasms thus induced.

[9] = system: isolated duodenum, spasms induced by barium chloride; experiment: Spasms of the isolated duodenum of a rat induced by barium chloride (musculotropic)
From the text: as §4, §5

[10] = system: constraint ulcer; experiment: Protection against constraint ulcer, acute oral; assay type: in vivo, rat CD (Charles River); details: p.o., rat, 24 hours constraint, read-out: DE 50, dose decreasing by 50% the ulcerating effect (constraint ulcer)
From the text: as §3
The second studies the activity of the product in connection with the constraint ulcer according to Rossi, G., Bonfils, S., Leifooche, G. and Lambling A. (C.R. Soc. Biol. 150, 2124, 1956). The result is expressed by a DE 50 which represents the dose of the substance in mg/kg capable of decreasing by 50% the ulcerating effect caused by the 24 hours constraint.

SMILES	LD50 [1] [mg/kg]	ED50 [2] [mg/kg]	ED50 [3] [mg/kg]	LD50 [4] [mg/kg]	antiulcer properties (in words) [5]	ED50 [5] [mg/kg]	CE 50, spasms of isolated uterus of rat induced by serotonine [6] [mg/L]	inhibiting action on the cerebral phosphodiesterases (in words) ([7]; rat brain supernatant)	IC50 ([7]; supernatant of brain of male rats, 10,000 G, read-out: CI 50, inhibiting concentration 50% on the cerebral phosphodiesterases) [µM]	CE 50, concentration decreasing by 50% the amplitude of spasms induced by acetyl-choline [8] [mg/L]	CE 50, concentration decreasing by 50% the amplitude of spasms induced by barium chloride [9] [mg/L]	anti-serotonine activity (in words) ([6]; in vitro (rat uterus) and in vivo (guinea pig))	ED50 [10] [mg/kg]	spasmolytic effects, both musculotropic and neurotropic (in words) [8]	anti-emetic activity (in words) ([2]; apomorphine)
CNc1nc(Cl)c(Br)c(N2CCN(C)CC2)n1 [Example 1, 2-methylamino-4-(N-methylpiperazinyl) 5-bromo 6-chloro pyrimidine]	100	1	0.08	55											
CC(C)Nc1nc(N2CCN(C)CC2)nc(Cl)c1Br [Example 2, 2-(N-methylpiperazinyl) 4,isopropylamino 5-bromo 6-chloro pyrimidine]	675	> 5	0.45	83	outstanding antiulcer properties	100	0.07	interesting inhibiting action	40	5.5	3				
CC(C)Nc1nc(Cl)c(Br)c(N2CCN(C)CC2)n1 [Example 3]	200	1.4	0.85	86	outstanding antiulcer properties	20	0.004			1.8	0.6	very high anti-serotonine activity	12	very interesting	very important anti-emetic activity
CCCCCCCNc1nc(Cl)c(Br)c(N2CCN(C)CC2)n1 [Example 4]	> 900					> 100	0.35			1.4	1.3			very interesting	
CN1CCN(c2nc(N)nc(Cl)c2Br)CC1 [Example 6]	600			48		> 100	0.05			4	0.2			very interesting	
Cc1ccc(N(C)c2nc(Cl)c(Br)c(N3CCN(C)CC3)n2)cc1 [Example 7]	> 900			83		> 100	0.05			1.4	0.6			very interesting	
Cc1ccc(N(C)c2nc(Cl)c(Br)c(NCCN(C(C)C)C(C)C)n2)cc1 [Example 9]	675					300	0.33								
